Patent US20250144099A1, “INK4 TUMOR SUPPRESSOR PROTEINS MEDIATE RESISTANCE TO CDK4/6 KINASE INHIBITORS” (MEMORIAL SLOAN-KETTERING CANCER CENTER, priority 2021, published 2025)
Entries after “also recorded” stand apart in the source; their conditions may differ.

Tests used:
MOLT4 cells = experiment: Global quantitative mass spectrometry proteomics; type: cell-based, human; details: 250 nM, 5 h
Protocol: Molt4 cells were treated with 250 nM of compounds BSJ-05-017 or BSJ-03-096 (singlicate) or DMSO control (biological triplicate) for 5 hours. Cells were harvested by centrifugation and prepared for mass spectrometry as described previously (28). Data were collected as reported (28). LC-MS data were analyzed using Proteome Discoverer 2.4 (Thermo Fisher Scientific), as previously described (28). Reporter ion intensities were normalized and scaled using in-house scripts in the R framework (63). Statistical analysis was carried out using the limma package within the R framework (64).

CDK6-high cells = experiment: Senescence Green flow cytometry assay; type: cell-based, human; details: 8 days; BSJ-05-017 500 nM, abemaciclib 100 nM, palbociclib 500 nM
Protocol: Senescence analysis. […] Cells were harvested using trypsin/EDTA, then stained with the CellEvent Senescence Green Flow Cytometry Assay Kit (Invitrogen) according to the manufacturer's instructions. Briefly, cells were fixed with 2% paraformaldehyde for 15 min at room temperature and stained with the CellEvent Senescence Green Probe for 2 hours at 37° C. without CO2. After incubation, cells were washed with PBS 3 times and resuspended in FACS buffer (PBS with 2% FBS) for analysis on BD Biosciences LSR Fortessa using a 488 nm laser and 530 nm/30 filter (BD Biosciences). Data analysis was performed with FCS Express 7 (De Novo Software).

CDK4 = molecular target: T1, CDK4 (Homo sapiens, UniProt P11802); experiment: Immunoblotting of CDK4 degradation in cells; type: cell-based
T1 construct: CDK4 and CDK6 were immunoprecipitated from isogenic drug sensitive (MCF7 parental cells with low CDK6); endogenous in cells; host or cells: MCF-7 parental and MCF-7 FAT1 CRISPR knockout (CDK6-high) cells
Protocol: Cell lysates were collected in RIPA buffer (Thermo Fisher Scientific) supplemented with protease and phosphatase inhibitors (Pierce). Protein concentration was quantified by using the BCA kit (Fisher Scientific). […] of protein lysates were loaded onto 4-12% SDS-PAGE gels (Invitrogen) for electrophoresis and transferred onto nitrocellular membranes. Blots were blocked with Intercept™ (TBS) Blocking Buffer (LI-COR Bioscience #927-60001) and incubated with primary antibody at 4° C. overnight. Secondary antibodies conjugated with fluorescence (LI-COR Bioscience #926-68071 and #926-32210) were incubated for 1 h at room temperature and blots were scanned by Odyssey Clx Imaging System from LI-COR Bioscience.

[1] = test system: T47D parental and CDK6-overexpressing cells; experiment: Cell proliferation assay; type: cell-based, human; details: recorded at day 3, day 5 and day 7
Protocol: Cell viability was measured by Resazurin (R&D Systems, Minneapolis, MN, USA) as described previously (51). Briefly, 1,500 cells were seeded in a 96-well plate and allowed to recover overnight. Cells were treated with drugs at day 0. Resazurin was added to the cells 4 hours prior to the measurements on day 3, day 5 and day 7. Fluorescent intensity was measured using a microplate reader (SpectraMax M5, Molecular Devices, Sunnyvale, CA, USA). IC50 was calculated by GraphPad Prism 7.0 using a sigmoidal regression model.

Pharmacokinetic study = type: in vivo, C57BL/6 male mice
Protocol: Pharmacokinetic study. C57BL/6 male mice were dosed with BSJ-05-017 solution formulation (i.p., 5/95 DMSO/10% captisol, dose 25 mg/kg) and BSJ-03-096 solution formulation (p.o., 5/95 DMSO/10%, dose 10 mg/kg). Blood samples were collected at 0.08, 0.25, 0.5, 1, 2, 4, 6, 8 and 24 hr. The blood samples were collected from sets of three mice at each time point in microcentrifuge tubes containing K2EDTA as an anticoagulant. Plasma samples were separated by centrifugation and stored below −70° C. until bioanalysis. All samples were processed for analysis by precipitation using acetonitrile and analyzed with a partially validated LC/MS/MS method (LLOQ −1.22 ng/mL for IV and PO, LLOQ −5.02 ng/mL for IP). Pharmacokinetic parameters were calculated using the noncompartmental analysis tool of WinNonlin Enterprise software (Version 6.3).

[2] = test system: MCF7 parental cell-derived xenografts; experiment: Efficacy study, cell-derived xenograft; type: in vivo, NSG mice; details: ribociclib 25 mg/kg p.o., BSJ-05-017 50 mg/kg i.p., BSJ-03-096 50 mg/kg p.o., 25-35 days
Protocol: (§1) Efficacy study. NOD.Cg-Prkdc Il2rg<tm1Wjl>/SzJ (NSG) mice were obtained from the Jackson Laboratory (Stock #: 005557). Each mouse was injected with MCF7 parental, CDK6-ovexpressing or PTEN loss cells subcutaneously 1 week after the implantation of estradiol pellets (25 mg). […] Tumor volumes were recorded every 3-4 days. Mice were sacrificed if tumors reached 1000 mm^3 or at the end of the experiment. Tumors were collected and processed as described above.

[3] = test system: shPTEN (PTEN loss) xenografts; experiment: Efficacy study, cell-derived xenograft; type: in vivo, NSG mice; details: BSJ-05-017 50 mg/kg i.p., BSJ-03-096 50 mg/kg p.o., 25-35 days
Protocol: as §1

[4] = test system: CDK6-overexpressing xenografts; experiment: Efficacy study, cell-derived xenograft; type: in vivo, NSG mice; details: BSJ-05-017 50 mg/kg i.p., BSJ-03-096 50 mg/kg p.o., 25-35 days
Protocol: as §1

[5] = test system: CDK6-high (FAT-1 loss) tumors; experiment: Pharmacodynamic study in tumor-bearing mice (immunoblotting of tumors); type: in vivo, NSG mice; details: 25 mg/kg i.p., 3 consecutive days, tumors collected at 6 h
Protocol: Pharmacodynamic study. NOD.Cg-Prkdc Il2rg<tm1Wjl>/SzJ (NSG) mice were obtained from the Jackson Laboratory (Stock #: 005557). Each mouse was injected with FAT1 loss cells subcutaneously 1 week after the implantation of estradiol pellets (25 mg). After the tumors reached 200 mm^3, mice were treated for 3 consecutive days with BSJ-05-017 at 25 mg/kg. Tumors were collected at 6 h. Lysates were prepared by homogenization in SDS-lysis buffer (˜1 ml/mg tissue) (50 mM Tris-HCl pH 7.4, 2% SDS) and boiled for 10 min, followed by brief sonication as described previously (65). Lysates were cleared by centrifugation at 14,000 g for 10 min and the supernatant was collected for western blotting.

T1 sequence (P11802 whole entry): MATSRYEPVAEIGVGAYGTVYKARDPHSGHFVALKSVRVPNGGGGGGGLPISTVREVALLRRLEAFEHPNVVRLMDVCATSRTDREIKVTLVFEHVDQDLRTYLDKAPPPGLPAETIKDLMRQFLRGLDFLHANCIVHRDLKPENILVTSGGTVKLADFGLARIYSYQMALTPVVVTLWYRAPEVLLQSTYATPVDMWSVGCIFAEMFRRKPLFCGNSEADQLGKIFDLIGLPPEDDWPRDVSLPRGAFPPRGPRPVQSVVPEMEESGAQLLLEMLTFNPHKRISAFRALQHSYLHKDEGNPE
T1 sequence (P24385 whole entry partner): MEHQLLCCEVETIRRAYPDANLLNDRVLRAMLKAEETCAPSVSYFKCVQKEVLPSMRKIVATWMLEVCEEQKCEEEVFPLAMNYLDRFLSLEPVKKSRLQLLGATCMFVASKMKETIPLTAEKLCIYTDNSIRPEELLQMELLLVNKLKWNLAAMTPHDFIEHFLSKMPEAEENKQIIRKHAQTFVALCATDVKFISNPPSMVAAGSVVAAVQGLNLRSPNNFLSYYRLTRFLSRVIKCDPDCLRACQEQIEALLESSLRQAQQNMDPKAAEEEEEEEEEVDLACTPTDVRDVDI

Q: Which “selectivity in global proteomics” value (MOLT4 cells) does the source give for `CC(=O)c1c(C)c2cnc(Nc3ccc(N4CCN(CCCCC(=O)N[C@H](C(=O)N5C[C@H](O)C[C@H]5C(=O)N[C@@H](C)c5ccc(-c6scnc6C)cc5)C(C)(C)C)CC4)cn3)nc2n(C2CCCC2)c1=O` [BSJ-05-017, (2S,4R)-1-((S)-2-(5-(4-(6-((6-acetyl-8-cyclopentyl-5-methyl-7-oxo-7,8-dihydropyrido[2,3-d]pyrimidin-2-yl)amino)pyridin-3-yl)piperazin-1-yl)pentanamido)-3,3-dimethylbutanoyl)-4-hydroxy-N—((S)-1-(4-(4-methylthiazol-5-yl)phenyl)ethyl)pyrrolidine-2-carboxamide] here?
A: highly selective for CDK4 and CDK6

Q: What about the senescence-marker positive cells (CDK6-high cells) of the same compound?
A: significantly higher number of cells into senescence compared with abemaciclib or palbociclib

Q: What about the “degradation of CDK4” value (CDK4; FAT1 loss / CDK6-high CDK4/6i-resistant MCF7 cells, 24 h treatment) of the same compound?
A: most significant degradation of both CDK4 and CDK6; also recorded: high potency in degrading CDK4 and CDK6

Q: What about the “degradation of CDK4” value (CDK4; MCF7 cells with overexpression of CDK6) of the same compound?
A: effectively degrade CDK4 and CDK6

Q: What about the “inhibition of cell growth” value [1] of the same compound?
A: inhibits the growth of both T47D parental and CDK6-overexpressing cells

Q: What about the Cmax (Pharmacokinetic study; male, C57BL/6, mouse, plasma, ip, single dose 25 mg/kg i.p.) of the same compound?
A: 2.6 µM

Q: And the concentration at 24 h (Pharmacokinetic study; male, C57BL/6, mouse, plasma, ip, single dose 25 mg/kg i.p., read-out: plasma concentration at 24h post dosing)?
A: ~0.1 µM

Q: And the metabolic stability (Pharmacokinetic study; single dose in mice, i.p. or p.o.)?
A: good metabolic stability

Q: What about the tumor response [2] of the same compound?
A: sensitive

Q: And the “durable tumor inhibition (percent)” value [3]?
A: ~47.4%

Q: What about the “durable tumor inhibition (percent)” value [4] of the same compound?
A: −64.9%

Q: What about the “Rb1 phosphorylation and E2F1 expression in tumors” value [5] of the same compound?
A: significant suppression of Rb1 phosphorylation and E2F1 expression

Q: And the “degradation of CDK4 and CDK6 in tumors” value [5]?
A: near complete degradation of CDK4 and CDK6
